Data as given in paper PMC10261210 (Cancer Chemotherapy and Pharmacology, 2023).
Like-named read-outs stand apart in the source and are kept apart here.

How the values were obtained:
[1] = system: neural progenitor cells transformed with KIAA1549-BRAF fusion protein; set-up: method as in PMID 28082416; conditions: cited from earlier work
[2] = set-up: method as in PMID 28082416; conditions: healthy brain and intracranial tumors (pediatric low-grade astrocytoma cells, KIAA1549-BRAF fusion); cited from earlier work
[3] = system: relapsed or refractory advanced solid tumors, melanoma; test: response by investigator assessment (RECIST 1.1); format: in vivo, human
From the text: Adverse events were coded using the Medical Dictionary for Regulatory Activities (MedDRA) Version 19.0 and were graded according to the National Cancer Institute (NCI) Common Terminology Criteria (CTC) for adverse events (CTCAE) (Version 4.03). The assessment period for treatment emergent adverse events (TEAEs) was from the first dose of study treatment to 30 days after the last dose of study medication, or until the start of subsequent antineoplastic therapy, whichever occurred first. Following baseline evaluation, response was assessed by investigators every two cycles by computed tomography or magnetic resonance imaging according to Response Evaluation Criteria in Solid Tumors (version 1.1).
The safety population was defined as all patients who received any amount of tovorafenib. The DLT-evaluable population was defined as all patients in the dose escalation phase of the study who either experienced DLT during cycle 1 or who completed at least 75% of the planned doses and had sufficient follow-up data to allow the investigators and sponsor to determine whether DLT had occurred. […] The PK-evaluable population included all patients who had sufficient dosing data and concentration–time data to permit calculation of PK parameters.

[4] = system: patients with relapsed or refractory advanced solid tumors; test: 3 + 3 dose escalation: DLT, MTD, RP2D; format: in vivo; conditions: for MTD: 28-day cycles; for recommended phase 2 dose (RP2D): human, in vivo
From the text: Prior to the initiation of QW dose escalation, the initial cycle length of 22 days was changed to 28 days by protocol amendment to improve clinical feasibility and better facilitate future combination studies. Patients enrolled prior to this protocol amendment in an ongoing Q2D dose escalation cohort continued on the 22-day cycle schedule until the cohort was full and all patients had been evaluated for dose-limiting toxicity (DLT). For both Q2D and QW regimens, dose escalation progressed according to the incidence of DLT in the first treatment cycle (either 22 days or 28 days). […] The MTD was defined as the highest dose level that generated DLT in 0/3 or 1/6 patients. On a case-by-case basis, the sponsor in collaboration with the principal investigators determined if intrapatient dose escalation was appropriate. Patients who had any dose reductions were not permitted to dose escalate.
The starting dose for the Q2D dose escalation phase was 20 mg, which was equivalent to one-tenth of the highest non-severely toxic dose (HNSTD) established in monkey toxicology studies. Dose escalation included planned dose levels of 40 mg, 80 mg, 135 mg, 200 mg, and 280 mg. […] In addition, a seventh Q2D cohort was to enroll sufficient patients (approximately 16) with any advanced solid tumor (excluding lymphoma) to ensure that 12 patients completed protocol-specified dosing and PK assessments scheduled during cycle 1.
The study was initially designed to investigate a Q2D schedule. Subsequently, a protocol amendment introduced planned QW dose escalation cohorts. The alteration in the dosing regimen from Q2D to QW was expected to reduce drug accumulation and increase Cmax while maintaining similar steady-state AUC. In addition, it was hypothesized that the increased Cmax might lead to a higher degree of pathway inhibition for a window of time within the dosing interval, without compromising overall dose density. Planned QW doses to be administered on days 1, 8, 15, and 22 of a 28-day cycle were a starting dose of 400 mg, followed by dose level increases of 200 mg (i.e., doses of 600 mg, 800 mg, and 1000 mg) in each subsequent cohort until the MTD/RP2D was reached.

[5] = system: recurrent/progressive low-grade gliomas harboring MAPK pathway alterations; conditions: cited from earlier work
[6] = dose expansion Cohort 1, BRAF+ Naïve, Q2D n = 16
[7] = dose expansion Cohort 2, BRAF+ Previously treated, Q2D n = 6
[8] = dose expansion Cohort 3, NRAS+ Naïve, Q2D n = 14
[9] = dose expansion Cohort 4, NRAS + Previously treated, Q2D n = 1
[10] = dose expansion Cohort 5, BRAF/NRAS WT Naïve, Q2D n = 6
[11] = dose expansion Cohort 6, BRAF/NRAS WT Previously, Q2D n = 9
[12] = dose expansion Cohort 9, NRAS+ Naïve, QW n = 17
[13] = dose expansion, Q2D n=68 (melanoma cohorts, PK cohort, unknown)
[14] = dose-escalation part, QW monotherapy, 8 patients with tumor RAF gene fusions

Structure (SMILES): C[C@@H](NC(=O)c1ncnc(N)c1Cl)c1ncc(C(=O)Nc2cc(C(F)(F)F)c(Cl)cn2)s1 [tovorafenib]
- paradoxical activation of ERK signaling [1]: not to trigger paradoxical activation of ERK signaling
- blood–brain barrier penetration [2]: good blood–brain barrier penetration
- median PFS ([3]; BRAF mutation-positive, RAF and MEK inhibitor-naïve cohort, 95% CI 1.9–14.3): 5.7 months
- sustained PFS in an individual patient ([3]; BRAF mutation-positive, RAF and MEK inhibitor-naïve cohort, in response and on treatment at data cutoff): 45 months
- duration of stable disease in one patient ([3]; NRAS-mutated melanoma, cohort 7): 42 months
- best response of stable disease ([3]; Q2D dose escalation, 5 of 22 evaluable patients): 23%
- responses ([3]; Q2D dose escalation, 22 evaluable patients): no responses
- Objective response rate ([3]; Q2D expansion phase, 10 of 68 evaluable patients, 95% CI 7–25): 15%
- median duration of response ([3]; Q2D expansion, 68 evaluable patients): 6.0 months
- median progression-free survival (PFS) ([3]; Q2D expansion, 68 evaluable patients, 95% CI 1.8–3.6): 1.9 months
- partial responses ([3]; QW dose escalation, 2 in 14 evaluable patients (endometrial cancer 600 mg, thyroid cancer 800 mg)): 14%
- best response of stable disease ([3]; QW dose expansion, 9 of 17 evaluable patients): 53%
- responses ([3]; QW dose expansion, 17 evaluable patients, NRAS mutation-positive melanoma naïve to RAF and MEK inhibitors): no responses
- responses (partial) ([3]; cohort 1, BRAF mutation-positive melanoma, RAF and MEK inhibitor-naïve, Q2D, 8 of 16): 50%
- responses ([3]; cohort 2, BRAF mutation-positive, RAF and MEK inhibitor-previously treated, Q2D, 1 of 6): 17%
- responses ([3]; cohort 3, NRAS mutation-positive, RAF and MEK inhibitor-naïve, Q2D, 1 of 14): 7%
- Best overall response: Complete response ([3]; dose escalation, Q2D n = 22): 0 n (%)
- Best overall response: Partial response ([3]; dose escalation, Q2D n = 22): 0 n (%)
- Best overall response: Progressive disease ([3]; dose escalation, Q2D n = 22): 17 (77) n (%)
- Best overall response: Stable disease ([3]; dose escalation, Q2D n = 22): 5 (23) n (%)
- Objective response rate ([3]; dose escalation, Q2D n = 22): 0 n (%)
- Best overall response: Complete response ([3]; dose escalation, QW n = 14): 0 n (%)
- Best overall response: Partial response ([3]; dose escalation, QW n = 14): 2 (14) n (%)
- Best overall response: Progressive disease ([3]; dose escalation, QW n = 14): 8 (57) n (%)
- Best overall response: Stable disease ([3]; dose escalation, QW n = 14): 4 (29) n (%)
- Objective response rate ([3]; dose escalation, QW n = 14): 2 (14) n (%)
- Best overall response: Complete response ([3]; dose escalation, Total n=36): 0 n (%)
- Best overall response: Partial response ([3]; dose escalation, Total n=36): 2 (6) n (%)
- Best overall response: Progressive disease ([3]; dose escalation, Total n=36): 25 (69) n (%)
- Best overall response: Stable disease ([3]; dose escalation, Total n=36): 9 (25) n (%)
- Objective response rate ([3]; dose escalation, Total n=36): 2 (6) n (%)
- Best overall response: Complete response [3, 6]: 0 n (%)
- Best overall response: Partial response [3, 6]: 8 (50) n (%)
- Best overall response: Progressive disease [3, 6]: 6 (38) n (%)
- Best overall response: Stable disease [3, 6]: 2 (13) n (%)
- Objective response rate [3, 6]: 8 (50) n (%)
- Best overall response: Complete response [3, 7]: 0 n (%)
- Best overall response: Partial response [3, 7]: 1 (17) n (%)
- Best overall response: Progressive disease [3, 7]: 2 (33) n (%)
- Best overall response: Stable disease [3, 7]: 3 (50) n (%)
- Objective response rate [3, 7]: 1 (17) n (%)
- Best overall response: Complete response [3, 8]: 0 n (%)
- Best overall response: Partial response [3, 8]: 1 (7) n (%)
- Best overall response: Progressive disease [3, 8]: 9 (64) n (%)
- Best overall response: Stable disease [3, 8]: 4 (29) n (%)
- Objective response rate [3, 8]: 1 (7) n (%)
- Best overall response: Complete response [3, 9]: 0 n (%)
- Best overall response: Partial response [3, 9]: 0 n (%)
- Best overall response: Progressive disease [3, 9]: 1 (100) n (%)
- Best overall response: Stable disease [3, 9]: 0 n (%)
- Objective response rate [3, 9]: 0 n (%)
- Best overall response: Complete response [3, 10]: 0 n (%)
- Best overall response: Partial response [3, 10]: 0 n (%)
- Best overall response: Progressive disease [3, 10]: 5 (83) n (%)
- Best overall response: Stable disease [3, 10]: 1 (17) n (%)
- Objective response rate [3, 10]: 0 n (%)
- Best overall response: Complete response [3, 11]: 0 n (%)
- Best overall response: Partial response [3, 11]: 0 n (%)
- Best overall response: Progressive disease [3, 11]: 6 (67) n (%)
- Best overall response: Stable disease [3, 11]: 3 (33) n (%)
- Objective response rate [3, 11]: 0 n (%)
- Best overall response: Complete response [3, 12]: 0 n (%)
- Best overall response: Partial response [3, 12]: 0 n (%)
- Best overall response: Progressive disease [3, 12]: 8 (47) n (%)
- Best overall response: Stable disease [3, 12]: 9 (53) n (%)
- Objective response rate [3, 12]: 0 n (%)
- Best overall response: Complete response [3, 13]: 0 n (%)
- Best overall response: Partial response [3, 13]: 10 (15) n (%)
- Best overall response: Progressive disease [3, 13]: 37 (54) n (%)
- Best overall response: Stable disease [3, 13]: 21 (31) n (%)
- Objective response rate [3, 13]: 10 (15) n (%)
- Best overall response: Complete response ([3]; dose expansion, QW n=17): 0 n (%)
- Best overall response: Partial response ([3]; dose expansion, QW n=17): 0 n (%)
- Best overall response: Progressive disease ([3]; dose expansion, QW n=17): 8 (47) n (%)
- Best overall response: Stable disease ([3]; dose expansion, QW n=17): 9 (53) n (%)
- Objective response rate ([3]; dose expansion, QW n=17): 0 n (%)
- Best overall response: Complete response ([3]; dose expansion, Total n=85): 0 n (%)
- Best overall response: Partial response ([3]; dose expansion, Total n=85): 10 (12) n (%)
- Best overall response: Progressive disease ([3]; dose expansion, Total n=85): 45 (53) n (%)
- Best overall response: Stable disease ([3]; dose expansion, Total n=85): 30 (35) n (%)
- Objective response rate ([3]; dose expansion, Total n=85): 10 (12) n (%)
- MTD ([4]; Q2D): 200 mg
- MTD ([4]; QW): 600 mg
- recommended phase 2 dose (RP2D) [4]: 200 mg
- recommended phase 2 dose (RP2D) ([4]; 28 days): 600 mg
- complete responses [5, 14]: 2 patients
- partial responses [5, 14]: 3 patients
- prolonged stable disease [5, 14]: two
- patients with clinically meaningful activity ([5]; phase 1b part, 24 of 35 patients with MAPK pathway-altered cancers): 69%
- complete responses ([5]; phase 1b part, 35 patients): 2
- partial responses ([5]; phase 1b part, 35 patients): 7
- stable diseases ([5]; phase 1b part, 35 patients): 15
